Results taken from patent publication US20080249080A1, “Benzodiazepine Derivatives and Uses Thereof on Medical Field” (priority 2005, published 2008).
“Also recorded” adds a separate entry of the source.

Tests used:
RET kinase = RET kinase (Homo sapiens, UniProt P07949); conditions: cited from earlier work
[1] = test system: RET/C634R and RET/M918T mutants; conditions: cited from earlier work
[2] = test system: RET/E768D, RET/L790F, RET/Y791F, RET/A883F and RET/S891A mutants; conditions: cited from earlier work
[3] = test system: RET/V804L and RET/V804M mutants; conditions: cited from earlier work
[4] = test system: K562 (human erythroleucemic cell line); assay: Apoptosis by propidium iodide flow cytofluorimetry, K562; type: cell-based; conditions: 10 μM; for percentage of the apoptotic cells in comparison with non treated cells: FIGS. 7-9; for time after which apoptosis is induced: propidium iodide, cytofluorimeter
Experimental: (§1) The used cellular lines are: K562 (human erythroleucemic cell line), HL60 (human acute promyelocytic leukemia cell line), Jurkat (cell line from acute lymphoblastic T variant leukemias), U937 (acute promyelocitic leukemia cell line) and Glivec resistant K562 (this cell line was supplied kindly by Prof. Carlo Gambacorti-Passerini of the Dipartimento of Clinica Medica, Università of Milan-Bicocca, Monza, Italy) (Gambacorti-Passerini CB, et al, 2002).
(§2) The cell lines were incubated with RS678 and RS779 synthetic compounds at 10 μM concentration for 8, 16 and 24 hours, subsequently washed with PBS and 2.5 mg/ml of propidium iodide. This phenanthridine dye, when intercalated into double-stranded DNA forms a sufficiently stable complex that under excitation emits a red fluorescent light. By means of this coloration it is possible to discriminate in an heterogenous population cells with different DNA contents and therefore to estimate the distribution of the cellular populations based on their DNA contents and whether possibly, as a result from pharmacological treatments, alterations at level of cell cycle have manifested. The labeled cell lines were analyzed using flow FACSort cytofluorimeter.

[5] = test system: HL60 (human acute promyelocytic leukemia cell line); assay: Apoptosis by propidium iodide flow cytofluorimetry, HL60; type: cell-based; conditions: 10 μM; for percentage of the apoptotic cells in comparison with non treated cells: FIGS. 7-9; for time after which apoptosis is induced: propidium iodide, cytofluorimeter
Experimental: as §1, §2

[6] = test system: Jurkat (cell line from acute lymphoblastic T variant leukemias); assay: Apoptosis by propidium iodide flow cytofluorimetry, Jurkat; type: cell-based; conditions: 10 μM; for percentage of the apoptotic cells in comparison with non treated cells: FIGS. 7-9; for time after which apoptosis is induced: propidium iodide, cytofluorimeter
Experimental: as §1, §2

[7] = test system: U937 (acute promyelocitic leukemia cell line); assay: Apoptosis by propidium iodide flow cytofluorimetry, U937; type: cell-based; conditions: 10 μM; for percentage of the apoptotic cells in comparison with non treated cells: FIGS. 7-9; for time after which apoptosis is induced: propidium iodide, cytofluorimeter
Experimental: as §1, §2

Glivec resistant K562 = assay: Apoptosis by propidium iodide flow cytofluorimetry, Glivec resistant K562; type: cell-based, human; conditions: 10 μM; for percentage of the apoptotic cells in comparison with non treated cells: FIGS. 7-9; for time after which apoptosis is induced: propidium iodide, cytofluorimeter
Experimental: as §1, §2

[8] = test system: R2C cell line (rat Leydig tumour); assay: DNA fragmentation, R2C cell line; type: cell-based; conditions: high concentrations (10 μM and 50 μM), FIG. 1 C
[9] = test system: mixed lymphocytic cultures from marrow or peripheral blood of patients suffering from chronic myelogenous leukemia; assay: DNA fragmentation, mixed lymphocytic cultures of CML patients; type: cell-based, human; conditions: 10 μM
[10] = test system: OVCAR3 ovary carcinoma cell line; assay: DNA fragmentation, OVCAR3; type: cell-based, human; conditions: 10 μM, 24 and 48 hours
Description: (§3) The authors also have tested compounds according to the invention, in particular RS-678 and RS-779 compounds, also on OVCAR3 ovary carcinoma cell lines, ARO anaplastic thyroid and NPA papillary thyroid human carcinoma cell lines.

[11] = test system: ARO anaplastic thyroid carcinoma cell line; assay: DNA fragmentation, ARO; type: cell-based, human; conditions: 10 μM, 24 and 48 hours
Experimental: as §3
(§4) Subsequently, the same cell lines, except OVCAR3, were tested with fourteen new synthetic compounds at 10 μM concentration for 24 and 48 hours: eleven induced the expected cellular death.

[12] = test system: NPA papillary thyroid carcinoma cell line; assay: DNA fragmentation, NPA; type: cell-based, human; conditions: 10 μM, 24 and 48 hours
Experimental: as §3, §4

caspase 8 = assay: Western blot, caspase 8 activation in K562; type: cell-based, human; conditions: FIG. 3
Experimental: (§5) Moreover, in order to elucidate the apoptotic pathway triggered by these two substances, Western Blotting experiments and tyrosine-kinase assays were carried out and evidenced that: (i) these compounds activate specific molecules involved in the apoptotic process (caspase 9 and caspase 8) (FIG. 3);

caspase 9 [13] = assay: Western blot, caspase 9 activation in K562; type: cell-based, human; conditions: FIG. 3
Experimental: as §5

bcr-abl protein [14] = assay: Western blot, bcr-abl protein expression; type: cell-based, human; conditions: after 16 hours of treatment; FIG. 4
Experimental: (§6) Moreover, in order to elucidate the apoptotic pathway triggered by these two substances, Western Blotting experiments and tyrosine-kinase assays were carried out and evidenced that: […]

bcr-abl protein [15] = molecular target: T1, bcr-abl protein (Homo sapiens, UniProt P00519); assay: Tyrosine-kinase assay, bcr-abl phosphorylation pattern; type: cell-based; conditions: FIG. 4
T1 construct: endogenous in cells; host or cells: K562; the other entry of the earlier key: BCR (P11274, Breakpoint cluster region protein)
Experimental: as §6

K562 cell line [16] = assay: DNA fragmentation, K562 leukemic cell line; type: cell-based, human; conditions: 5, 10, 15 μM, 8, 16 and 24 hours, FIG. 1 A, B
caspase 9 [17] = assay: Western blot, caspase 9 in CML patient sample; type: cell-based, human; conditions: 24 and 48 hours, FIG. 15
ARO cell line = assay: Percentage of dead cells, ARO; type: cell-based, human; conditions: after 24 hours
NPA cell line = assay: Percentage of apoptosis, NPA; type: cell-based, human; conditions: after 24 hours
K562 cell line [18] = assay: Percentage of apoptosis, K562; type: cell-based, human; conditions: after 24 hours
[19] = test system: RET/C634R transformed RAT1 fibroblasts; conditions: 1 μl of ZD6474; cited from earlier work
[20] = test system: RET/V804L and RET/V804M transformed cells; conditions: same concentration (1 μl of ZD6474); cited from earlier work
[21] = mixed lymphocytic cultures of CML patients, 8, 16, 24 and 48 hours
[22] = samples from patients (some Glivec resistant), 24, 48 and 72 hours, FIGS. 12-14

T1 sequence (P00519 with tags, fused parts or gaps): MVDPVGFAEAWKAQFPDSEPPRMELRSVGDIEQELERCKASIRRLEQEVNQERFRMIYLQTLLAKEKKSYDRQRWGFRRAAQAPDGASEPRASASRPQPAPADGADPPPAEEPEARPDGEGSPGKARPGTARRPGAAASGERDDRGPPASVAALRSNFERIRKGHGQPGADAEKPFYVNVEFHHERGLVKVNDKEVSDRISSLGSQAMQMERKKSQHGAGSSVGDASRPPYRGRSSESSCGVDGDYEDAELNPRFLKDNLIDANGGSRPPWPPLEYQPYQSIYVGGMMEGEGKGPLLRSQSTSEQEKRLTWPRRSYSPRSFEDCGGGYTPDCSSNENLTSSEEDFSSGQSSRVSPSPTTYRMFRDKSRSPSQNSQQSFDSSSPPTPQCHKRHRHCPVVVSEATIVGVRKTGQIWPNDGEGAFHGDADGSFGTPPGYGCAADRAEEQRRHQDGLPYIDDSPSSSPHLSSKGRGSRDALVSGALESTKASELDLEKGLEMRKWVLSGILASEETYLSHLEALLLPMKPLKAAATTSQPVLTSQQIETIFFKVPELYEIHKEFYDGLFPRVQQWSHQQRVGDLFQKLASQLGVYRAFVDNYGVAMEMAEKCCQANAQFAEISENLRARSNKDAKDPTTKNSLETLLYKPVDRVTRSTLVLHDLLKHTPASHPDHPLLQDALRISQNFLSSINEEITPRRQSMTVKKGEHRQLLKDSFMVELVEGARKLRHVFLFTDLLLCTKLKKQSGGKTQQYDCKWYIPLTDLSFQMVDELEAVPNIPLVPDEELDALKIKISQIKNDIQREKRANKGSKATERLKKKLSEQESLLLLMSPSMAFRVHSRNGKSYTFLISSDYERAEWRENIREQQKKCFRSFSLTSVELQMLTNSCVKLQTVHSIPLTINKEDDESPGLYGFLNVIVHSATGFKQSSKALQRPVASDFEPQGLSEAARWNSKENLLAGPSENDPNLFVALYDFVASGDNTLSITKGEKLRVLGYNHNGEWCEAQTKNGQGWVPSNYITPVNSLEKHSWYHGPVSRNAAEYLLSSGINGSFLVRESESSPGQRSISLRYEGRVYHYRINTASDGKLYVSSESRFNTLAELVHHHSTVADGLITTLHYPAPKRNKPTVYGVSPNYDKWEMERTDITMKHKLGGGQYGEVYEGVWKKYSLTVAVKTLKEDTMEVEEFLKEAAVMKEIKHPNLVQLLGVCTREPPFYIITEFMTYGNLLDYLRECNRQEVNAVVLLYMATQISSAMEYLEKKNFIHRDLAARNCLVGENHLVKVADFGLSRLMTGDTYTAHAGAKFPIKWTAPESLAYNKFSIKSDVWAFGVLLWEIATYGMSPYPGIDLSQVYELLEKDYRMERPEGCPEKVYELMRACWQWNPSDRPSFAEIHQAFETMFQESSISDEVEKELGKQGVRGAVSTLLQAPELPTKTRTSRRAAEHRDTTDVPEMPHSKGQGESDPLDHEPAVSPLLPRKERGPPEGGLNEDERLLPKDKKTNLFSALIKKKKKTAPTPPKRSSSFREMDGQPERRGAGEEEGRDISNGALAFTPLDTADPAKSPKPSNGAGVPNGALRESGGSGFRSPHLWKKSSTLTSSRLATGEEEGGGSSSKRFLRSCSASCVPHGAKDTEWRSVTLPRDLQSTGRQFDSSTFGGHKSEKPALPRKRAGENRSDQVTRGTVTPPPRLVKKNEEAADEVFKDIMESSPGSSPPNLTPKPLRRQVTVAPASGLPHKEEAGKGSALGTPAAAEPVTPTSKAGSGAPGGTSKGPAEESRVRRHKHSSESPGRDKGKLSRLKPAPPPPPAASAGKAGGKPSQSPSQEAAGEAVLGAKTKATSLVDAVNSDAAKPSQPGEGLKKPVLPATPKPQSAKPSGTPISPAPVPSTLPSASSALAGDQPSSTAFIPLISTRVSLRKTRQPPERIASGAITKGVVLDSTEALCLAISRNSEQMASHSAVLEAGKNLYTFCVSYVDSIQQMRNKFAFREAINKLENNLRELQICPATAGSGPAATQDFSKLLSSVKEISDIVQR
Sequence of RET kinase (P07949 29-1114): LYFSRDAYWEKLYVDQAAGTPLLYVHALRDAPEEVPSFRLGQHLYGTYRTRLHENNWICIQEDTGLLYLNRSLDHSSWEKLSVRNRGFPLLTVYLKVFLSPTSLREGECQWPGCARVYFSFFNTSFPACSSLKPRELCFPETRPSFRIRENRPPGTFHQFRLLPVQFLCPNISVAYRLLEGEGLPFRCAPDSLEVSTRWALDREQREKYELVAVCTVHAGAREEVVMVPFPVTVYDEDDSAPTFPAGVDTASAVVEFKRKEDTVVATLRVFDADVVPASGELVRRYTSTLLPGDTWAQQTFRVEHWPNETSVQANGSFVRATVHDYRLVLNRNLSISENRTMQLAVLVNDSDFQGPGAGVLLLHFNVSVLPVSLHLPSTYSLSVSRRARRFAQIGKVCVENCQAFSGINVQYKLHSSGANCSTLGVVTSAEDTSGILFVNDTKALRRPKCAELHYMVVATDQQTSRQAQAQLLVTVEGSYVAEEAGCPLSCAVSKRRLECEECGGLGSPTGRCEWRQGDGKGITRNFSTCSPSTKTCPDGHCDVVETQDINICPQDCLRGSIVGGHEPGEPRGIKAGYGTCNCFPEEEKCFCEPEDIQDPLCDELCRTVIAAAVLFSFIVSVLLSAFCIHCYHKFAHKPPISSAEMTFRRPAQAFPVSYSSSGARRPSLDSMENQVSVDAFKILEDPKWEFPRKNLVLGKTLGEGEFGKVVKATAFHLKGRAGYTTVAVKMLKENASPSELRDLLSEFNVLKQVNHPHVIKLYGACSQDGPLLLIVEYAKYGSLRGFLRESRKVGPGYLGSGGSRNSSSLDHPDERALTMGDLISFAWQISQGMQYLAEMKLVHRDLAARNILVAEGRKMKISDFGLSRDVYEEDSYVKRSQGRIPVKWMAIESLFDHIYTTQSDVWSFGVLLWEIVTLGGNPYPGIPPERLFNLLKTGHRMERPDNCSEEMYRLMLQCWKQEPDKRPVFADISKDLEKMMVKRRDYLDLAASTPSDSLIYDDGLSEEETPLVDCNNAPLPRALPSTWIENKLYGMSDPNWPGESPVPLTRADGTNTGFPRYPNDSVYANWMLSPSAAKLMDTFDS

Row | SMILES | block of the transforming activity [1] | inhibition of in vivo self-phosphorylation [2] | sensitivity to the action of inhibitors [3] | percentage of the apoptotic cells in comparison with non treated cells [4] | time after which apoptosis is induced [4] [h] | percentage of the apoptotic cells in comparison with non treated cells [5] | time after which apoptosis is induced [5] [h] | percentage of the apoptotic cells in comparison with non treated cells [6] | time after which apoptosis is induced [6] [h] | percentage of the apoptotic cells in comparison with non treated cells [7] | time after which apoptosis is induced [7] [h] | percentage of the apoptotic cells in comparison with non treated cells (Glivec resistant K562) | time after which apoptosis is induced (Glivec resistant K562) [h] | DNA fragmentation [8] | DNA fragmentation [9, 21] | DNA fragmentation [9, 22] | DNA fragmentation [10] | DNA fragmentation [11] | DNA fragmentation [12] | activation of caspase 8 (Western blot) (caspase 8) | other results
1 | CC(C)(C)n1nc(-c2ccc(Cl)cc2)c2c(N)ncnc21 [PP2] | able to block | inhibited effectively | less sensitive |  |  |  |  |  |  |  |  |  |  |  |  |  |  |  |  |  | inhibiting activity with respect to RET kinase (RET kinase): strong inhibiting activity
2 | CCOC(=O)C1Nc2ccccc2S(=O)(=O)n2cccc21 (stereo not shown) [RS-678, ethyl 10,11-dihydropyrrolo[1,2-b][1,2,5]benzothiadiazepine-11-carboxylate 5,5-dioxide] |  |  |  | increase | 8 | increase | 8 | increase | 8 | increase | 8 | increase | 16 | does not occur | fragmentation of the DNA | DNA fragmentation | induction of the DNA fragmentation | induction of the DNA fragmentation | induction of the DNA fragmentation | activation | activation of caspase 9 (Western blot) (caspase 9 [13]): activation; down-regulation of the bcr-abl protein (Western blot) (bcr-abl protein [14]): down-regulation; changes in the phosphorylation pattern of the bcr-abl protein (tyrosine-kinase assay) (bcr-abl protein [15]): not observed; apoptosis / DNA fragmentation (K562 cell line [16]): able to induce apoptosis; also recorded: DNA fragmentation
3 | CCOC(=O)C1c2cccn2S(=O)(=O)c2ccccc2N1C(=O)c1ccc(C)cc1 (stereo not shown) [RS-779, ethyl 10,11-dihydro-10-(4-methylbenzoyl)pyrrolo[1,2-b][1,2,5]benzothiadiazepine-11-carboxylate 5,5-dioxide] |  |  |  | increase | 8 | increase | 8 | increase | 8 | increase | 8 | increase | 16 | does not occur | fragmentation of the DNA | DNA fragmentation | induction of the DNA fragmentation | induction of the DNA fragmentation | induction of the DNA fragmentation | activation | activation of caspase 9 (Western blot) (caspase 9 [13]): activation; down-regulation of the bcr-abl protein (Western blot) (bcr-abl protein [14]): down-regulation; changes in the phosphorylation pattern of the bcr-abl protein (tyrosine-kinase assay) (bcr-abl protein [15]): not observed; activation of caspase 9 (Western blot) (caspase 9 [17]): strong activation; percentage of dead cells (ARO cell line): 45%; percentage of apoptosis (NPA cell line): 50%; percentage of apoptosis (K562 cell line [18]): 70%; apoptosis / DNA fragmentation (K562 cell line [16]): able to induce apoptosis; also recorded: DNA fragmentation
4 | COc1cc2c(Nc3ccc(Br)cc3F)ncnc2cc1OCC1CCN(C)CC1 [ZD6474] | able to block | inhibited effectively | less sensitive |  |  |  |  |  |  |  |  |  |  |  |  |  |  |  |  |  | proliferation [19]: reduces strongly; growth [20]: no effect
